Laboratory results from US20100028312A1, “Stably transformed bone marrow-derived cells and uses thereof” (Caritas St. Elizabeth Medical Center of Boston Inc, priority 2005, published 2010).

Columns and labels:
EPC [1] = experiment: β-galactosidase activity in EPC transduced with type 2 AAV, with or without genistein; assay type: cell-based, rats
Experimental: (§1) EPC Culture and Expansion. Peripheral blood (about 1 ml) was obtained from the hearts of rats and mononuclear cells were isolated by density gradient centrifugation and cultured for 5 days. EPC were expanded ex vivo as described above.
(§2) Transduction of EPC. EPC cultures were infected with type 2 AAV-lacZ (also referred to herein as AAV-lacZ(+)) (control) vectors or AAV-IGF-1 vectors, prepared as described above, using approximately 3000 particles/cell. Some cultures were treated for about 1 hour with genistein, a specific inhibitor of cellular protein tyrosine kinases, (2-40 μM, preferably about 20 μM). Control vectors used in the genistein experiments also included AAV vector without lacZ, designated AAVlacZ(−).
AAV-IGF-1 mRNA expression in EPCs was determined by RT-PCR assay using primers specific for human IGF-1 sequences. The primer sequences used in these studies are as shown:
To determine whether efficiency of rAAV transduction of cultured EPC can be enhanced by inhibiting protein tyrosine kinases in these cells, some EPC cultures were pretreated with genestein prior to infection with rAAV, as described above. Referring to FIG. 5, in cultures infected with AAVlacZ(−) control vector, β-gal activity was negligible. In cultures infected with AAVlacZ(+) without or with pretreatment with 20 μM genistein, β-gal activity was 3.35 vs. 12.09, respectively. […]

EPC [2] = experiment: RT-PCR assay of AAV-IGF-1 mRNA expression in transduced EPC, with or without genistein; assay type: cell-based, rats
Experimental: as §1, §2
One week after infection, the cells were analyzed for β-galactosidase activity. AAV-IGF-1 mRNA expression in EPCs was determined by RT-PCR assay using primers specific for human IGF-1 sequences. The primer sequences used in these studies are as shown: […]

BM cells = details: 100 ng intraperitoneal for 3 consecutive days; 2 months after BMT; versus control BMT
Experimental: To examine the effect of VEGF on BM cell mobilization, we injected the mice with 100 ng VEGF-C intaperitoneally for 3 days.
Freshly isolated BM cells or PB cells were subjected to FluoReporter lacZ Flow Cytometry Kit (Molecular Probes, OR) or stained with acetylated low-density lipoprotein (LDL) labeled with 1′-dioctadecyl1-1,3,3,3′-tetramethyl-indocarbocyanine; Di-I (Biomedical Technologies Inc, MA) as described previously [13]. Analysis was performed on a FACStar flow cytometer (Becton Dickinson) and Cell Quest Software counting 10,000 events per sample.
Accordingly, we treated recipient mice with VEGF protein and analyzed the kinetics of mobilization of BM cells by FACS analysis.
The means±S.E. from 9 independent experiments are presented. *, p<0.01, **, p<0.05 versus control BMT (FIG. 2A).

Compound	increase of lacZ activity by genistein (EPC [1]; 20 μM genistein versus no genistein, AAVlacZ(+))	β-gal activity (EPC [1]; 14 days after transduction, AAVlacZ(+)-infected EPC pretreated with 20 μM genistein)	AAV-mediated IGF-1 expression (mRNA, RT-PCR) (EPC [2]; AAV-IGF-1 transduced EPC following treatment with genistein)	increase of IGF-1 expression from AAV by genistein (EPC [2]; genistein versus no genistein)	β-gal expression in both PB and BM of recipient mice (BM cells)
O=c1c(-c2ccc(O)cc2)coc2cc(O)cc(O)c12 [genistein]	approximately four-fold	12.09	206.1 units	about seven-fold	
VEGF					significantly increased
